In general, IC50 refers to the concentration needed to halve the response being measured. A high value points to a need for much substance.

This experiment addresses T1, Bovine liver catalase (BLC) (Bos taurus, UniProt P00432).
T1 construct: gene CAT; native homotetramer from bovine liver (Sigma-Aldrich)
T1 sequence (P00432 2-527): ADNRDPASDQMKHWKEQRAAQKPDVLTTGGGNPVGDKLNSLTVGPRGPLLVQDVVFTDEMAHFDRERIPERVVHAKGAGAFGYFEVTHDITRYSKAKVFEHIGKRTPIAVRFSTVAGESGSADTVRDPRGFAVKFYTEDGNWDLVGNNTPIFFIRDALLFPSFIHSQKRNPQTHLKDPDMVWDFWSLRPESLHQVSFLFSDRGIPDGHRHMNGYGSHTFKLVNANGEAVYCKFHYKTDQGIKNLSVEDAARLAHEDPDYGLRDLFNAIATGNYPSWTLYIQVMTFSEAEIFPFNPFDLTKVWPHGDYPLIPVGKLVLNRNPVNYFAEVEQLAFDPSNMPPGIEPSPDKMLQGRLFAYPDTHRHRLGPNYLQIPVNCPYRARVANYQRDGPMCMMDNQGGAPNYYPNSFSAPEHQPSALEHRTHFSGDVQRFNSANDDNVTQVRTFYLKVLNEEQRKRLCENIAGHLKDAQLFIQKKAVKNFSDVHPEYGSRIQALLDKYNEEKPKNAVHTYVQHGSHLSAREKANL
In words: H2O2 decomposition at A240 with purified BLC; supported by fluorescence quenching (K =[…] ^-1 at […] °C, n = […]). The class given is biochemical.

`Oc1ccc(/C=C/c2cc(O)cc(O)c2)cc1` [tRES, trans resveratrol] yielded an IC50 of 8.1 µM.

For the origin of these results see article PMC5651055, “Effects of Resveratrol on the Structure and Catalytic Function of Bovine Liver catalase (BLC): Spectroscopic and Theoretical Studies” (Advanced Pharmaceutical Bulletin, 2017).
